Consider eight compounds from patent US20060094710A1, “Piperidine-pyridazones and phthalazones as pde4 inhibitors” (Altana Pharma AG, priority 2002, published 2006).

`COc1ccc(C2=NN(C3CCN(Cc4ccc(-n5cnc6ccccc65)cc4)CC3)C(=O)[C@@H]3CC=CC[C@H]23)cc1OC.Cl` [Compound 3, (4aS,8aR)-2-[1-(4-Benzimidazol-1-yl-benzyl)-piperidin-4-yl]-4-(3,4-dimethoxy-phenyl)-4a,5,8,8a-tetrahydro-2H-phthalazin-1-one hydrochloride] yielded a melting point of 147 to 149 °C.
With `COc1ccc(C2=NN(C3CCN(C(=O)CS(C)(=O)=O)CC3)C(=O)[C@@H]3CC=CC[C@H]23)cc1OC` [Compound 1, (4aS,8aR)-4-(3,4-Dimethoxy-phenyl)-2-[1(2-methanesulfonyl-ethanoyl)-piperidin-4-yl]-4a,5,8,8a-tetrahydro-2H-phthalazin-1-one], the melting point was in the range of 169 to 170 °C.
`COc1ccc(C2=NN(C3CCN(CCOCCN)CC3)C(=O)[C@@H]3CC=CC[C@H]23)cc1OC.Cl.Cl`: the melting point is 86 to 89 °C.
On to `COc1ccc(C2=NN(C3CCN(C(=O)CCCOc4ccc5[nH]c(=O)ccc5c4)CC3)C(=O)CC2)cc1OC` [Compound 15, 6-(4-{4-[3-(3,4-Dimethoxy-phenyl)-6-oxo-5,6-dihydro-4H-pyridazin-1-yl]-piperidin-1-yl}-4-oxo-butoxy)-1H-quinolin-2-one], for which the melting point was 169 to 171 °C.
`COc1ccc(C2=NN(C3CCN(CCS(C)(=O)=O)CC3)C(=O)[C@@H]3CC=CC[C@H]23)cc1OC.Cl` [Compound 11, (4aS,8aR)-4-(3,4-Dimethoxy-phenyl)-2-[1-(2-methanesulfonyl-ethyl)-piperidin-4-yl]-4a,5,8,8a-tetrahydro-2H-phthalazin-1-one hydrochloride] registered a melting point of 87 to 90 °C.
For `COCCN1CCC(N2N=C(c3ccc(OC)c(OC)c3)[C@H]3CC=CC[C@H]3C2=O)CC1.Cl` [Compound 9, (4aS,8aR)-4-(3,4-Dimethoxy-phenyl)-2-[1-(2-methoxy-ethyl)-piperidin-4-yl]-4a,5,8,8a-tetrahydro-2H-phthalazin-1-one hydrochloride], the melting point lay within 87 to 90 °C.
`COc1ccc(C2=NN(C3CCN(C(=O)CCS(=O)(=O)CCNC(=O)N4CCOCC4)CC3)C(=O)C3CC=CCC23)cc1OC` (centres unmarked) [Compound 5] returned a melting point of 118 to 121 °C.
On to `COc1ccc(C2=NN(C3CCN(CC(=O)c4cc5ccccc5o4)CC3)C(=O)C3CC=CCC23)cc1OC` (centres unmarked) [Compound 2], for which the melting point is 188 to 189 °C.

What is called melting point is the temperature, or range, at which the solid turns liquid.
